In patent US6673938B1, “Substituted pyridine herbicides” (Syngenta Participations AG, priority 1998, dated 2004):
Values joined by “and” are separate entries in the source; they are usually repeats but may differ in a detail not shown here. Equal entries are not always repeated.

Columns and labels:
[1] = tested on: Monocotyledonous and dicotyledonous test plants; experiment: Post-emergence herbicidal action; assay type: in vivo; conditions: 2000 g/ha, sprayed in 4- to 6-leaf stage, evaluated after approximately 18 days, nine-step scale
Procedure, shortened: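 Greenhouse plants sprayed at the 4- to 6-leaf stage with test substance as wettable-powder suspension or emulsion-concentrate emulsion, 2 kg or 250 g a.i./ha in 500 l water/ha. Scored after about 18 days on a nine-step scale (1=complete damage, 9=no effect).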

[2] = tested on: Monocotyledonous and dicotyledonous test plants; experiment: Herbicidal action before emergence of the plants (pre-emergence action); assay type: in vivo; conditions: 2000 g/ha, evaluated after 3 weeks, nine-step scale
Procedure, shortened: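 Sprayed onto soil immediately after sowing as WP suspension or EC emulsion at 2 kg or 250 g a.i./ha (500 l water/ha). Greenhouse growth for 3 weeks, then scored on a nine-step scale (1 = complete damage, 9 = no effect).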

Structure (SMILES) | Post-emergence action, Ipomoea [1] | Post-emergence action, Lolium [1] | Post-emergence action, Setaria [1] | Post-emergence action, Sinapis [1] | Post-emergence action, Solanum [1] | Post-emergence action, Stellaria [1] | pre-emergence action, Cyperus [2] | pre-emergence action, Ipomoea [2] | pre-emergence action, Setaria [2] | pre-emergence action, Sinapis [2] | pre-emergence action, Solanum [2] | pre-emergence action, Stellaria [2]
COC1CC(C)C(=O)C(C(=O)c2ccc(C(F)(F)F)nc2C)=C1O (centres unmarked) [Compound A2-B1070, 3-Hydroxy-4-methoxy-6-methyl-2-(2-methyl-6-trifluoromethyl-pyridine-3-carbonyl)cyclohex-2-enone] | 2 | 4 | 2 | 2 | 2 | 2 | 2 | 3 | 3 | 2 | 2 | 2
C#CCC1CC(C)(C)C(=O)C(C(=O)c2ccc(C(F)(F)F)nc2C)=C1O (centres unmarked) [Compound A2-B1082] | 1 | 2 | 2 | 1 | 1 | 2 | 2 | 2 | 2 | 2 | 1 | 2
CCC1CC(C)(C)C(=O)C(C(=O)c2ccc(C(F)(F)F)nc2C)=C1O (centres unmarked) [Compound A2-B1089] | 1 | 2 | 2 | 1 | 1 | 2 | 1 | 2 | 2 | 2 | 1 | 2
Cc1nc(C(F)(F)F)ccc1C(=O)C1=C(O)C(C)C(C)(C)CC1=O (centres unmarked) [Compound A2-B1095] | 1 | 2 | 4 | 1 | 2 | 2 | 3 | 4 | 2 | 2 | 1 | 2
CCN(CC)CC.Cc1nc(C(F)(F)F)ccc1C(=O)C1=C(O)CCCC1=O [Compound A2-B1100] | 2 | 2 | 3 | 1 | 1 | 2 | 1 | 3 | 1 | 2 | 1 | 2
Cc1nc(C(F)(F)F)ccc1C(=O)C1=C(O)CCC2(CC2)C1=O [Compound A2-C1] | 3 | 2 | 2 | 1 | 2 | 2 | 2 | 3 | 1 | 2 | 1 | 2
Cc1nc(C(F)(F)F)ccc1C(=O)C1=C(O)C(C)CC2(CC2)C1=O (centres unmarked) [Compound A2-C2] | 2 | 1 | 1 | 1 | 1 | 1 | 2 | 3 | 1 | 1 | 1 | 1
Cc1nc(C(F)(F)F)ccc1C(=O)C1=C(O)C(C)(C)CC2(CC2)C1=O [Compound A2-C24] | 1 | 1 | 1 | 1 | 1 | 1 | 1 | 2 | 1 | 1 | 1 | 2
Cc1nc(C(F)(F)F)ccc1C(=O)C1=C(O)CCC2(CCC2)C1=O [Compound A2-C146] | 1 | 2 | 2 | 1 | 2 | 2 | 1 | 2 | 2 | 2 | 1 | 2
Cc1nc(C(F)(F)F)ccc1C(=O)C1=C(O)C(C)(C)CC2(CCC2)C1=O [Compound A2-C147] | 1 | 2 | 2 | 1 | 2 | 2 | 2 | 4 | 2 | 2 | 2 | 2
Cc1nc(C(F)(F)F)ccc1C(=O)C1=C(O)C(C)CC2(CCC2)C1=O (centres unmarked) [Compound A2-C152] | 2 | 2 | 3 | 1 | 2 | 2 | 1 | 1 | 2 | 2 | 1 | 2
Cc1nc(C(F)(F)F)ccc1C(=O)C1=C(O)CC2CCCC2C1=O (centres unmarked) [Compound A2-D36] | 2 | 2 and 1 | 2 and 1 | 1 | 2 and 1 | 2 and 1 | 1 | 2 | 2 and 1 | 2 | – | 1
Cc1nc(C(F)(F)F)ccc1C(=O)C1=C(O)C(C)(S(C)(=O)=O)C2CC2C1=O (centres unmarked) [Compound A2-D115] | 1 | 2 | 1 | 1 | 1 | 1 | 3 | 3 | 2 | 2 | 2 | 3
